# In patent US9499551B2, “Substituted pyrrolo[2,3-b]pyridines for treating cancer or inflammatory diseases” (Confluence Life Sciences, Inc., priority 2014, dated 2016):
# Molecular target: T1, TAK1-TAB1 (Homo sapiens, UniProt O43318)
# T1 sequence (O43318 with tags, fused parts or gaps limits assumed): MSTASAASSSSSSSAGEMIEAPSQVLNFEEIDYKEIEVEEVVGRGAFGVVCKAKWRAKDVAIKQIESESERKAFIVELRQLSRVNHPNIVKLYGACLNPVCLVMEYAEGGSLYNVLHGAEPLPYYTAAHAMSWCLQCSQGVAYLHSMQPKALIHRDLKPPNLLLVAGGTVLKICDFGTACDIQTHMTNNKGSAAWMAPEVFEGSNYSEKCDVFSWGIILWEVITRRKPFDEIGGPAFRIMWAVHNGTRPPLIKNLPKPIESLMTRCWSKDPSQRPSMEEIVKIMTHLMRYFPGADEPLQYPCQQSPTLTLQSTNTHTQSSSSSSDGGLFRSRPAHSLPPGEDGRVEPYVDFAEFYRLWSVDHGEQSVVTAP
# Assay: TAK1-TAB1 binding inhibitory potency (LanthaScreen competitive binding assay, kinase tracer-236)
# Conditions: 10 nM TAK1-TAB1, 100 nM kinase tracer-236; read-out: TAK1-Tab Inhibition IC50
# From the text: TAK1-TAB1 Binding Inhibitory Potency:
# The ability of candidate compounds to interact with TAK1-TAB1 is quantitated by a competitive binding assay using the LanthaScreen technology developed by Life Technologies. This assay is based on the binding of a proprietary, Alexa Fluor® 647-labeled, ATP-competitive kinase inhibitor (kinase tracer-236) to the TAK1-TAB1 construct in presence of a europium-conjugated antibody, resulting in a FRET (fluorescence resonance energy transfer) signal. Displacement of the kinase tracer by compound results in a lower emission ratio upon excitation of the europium chelate. Candidate compounds are designed as potential irreversible inhibitors of TAK1-TAB1, capable of ligating to an active site cysteine residue. The time dependent nature of irreversible inhibition is investigated by performing the binding assay with and without a pre-incubation of compound and TAK1-TAB1.
# The inhibitory potency of candidate compounds is measured in 20 mM HEPES pH 7.5, 10 mM MgCl2, 0.01% BSA, 0.0005% Tween-20, and 2% DMSO in the presence of 10 nM TAK1-TAB1, 2 nM Eu-anti-his antibody, and 100 nM kinase tracer-236 using a 384-well plate format. Background signal is defined in the absence of TAK1-TAB1 and uninhibited signal is defined in the presence of vehicle (2% DMSO) alone. Compounds were evaluated in an 11 point dose-response ranging from 20 μM to 0.34 nM. The binding assays are performed under two conditions to evaluate time dependence of inhibition. For the pre-incubation assay, TAK1-TAB1 and Eu-anti-his antibody are preincubated with compound or vehicle for two hours prior to the addition of kinase tracer. The non-preincubated assay is run in which TAK1-TAB1 and Eu-anti-his antibody are added to a mixture of compound and kinase tracer. IC50 values of compounds are determined using a 4 parameter logistical fit of emission ratio as a function of the concentration of compound. […]
row,IC50 [nM],Compound
1,≤ 1000,"CCC(=O)c1ccc(-c2cnc3[nH]cc(/C=C/C(N)=O)c3c2)c(C)c1 [Example 313, (E)-3-(5-(2-methyl-4-propionylphenyl)-1H-pyrrolo[2,3-b]pyridin-3-yl)acrylamide]"
2,≤ 1000,"NC(=O)/C=C\c1c[nH]c2ncc(-c3ccc(C(O)c4nccs4)cc3)cc12 (centres unmarked) [Example 323, (Z)-3-(5-(4-(hydroxy(thiazol-2-yl)methyl)phenyl)-1H-pyrrolo[2,3-b]pyridin-3-yl)acrylamide]"
3,≤ 1000,"NC(=O)/C=C/c1c[nH]c2ncc(-c3ccc4c(c3)C(=O)CC4)cc12 [Example 352, (E)-3-(5-(3-oxo-2,3-dihydro-1H-inden-5-yl)-1H-pyrrolo[2,3-b]pyridin-3-yl)acrylamide]"
4,> 1000,"O=C(Nc1c[nH]c2ncc(-c3ccccc3)cc12)C1=CCCC1 [Example 232, N-(5-phenyl-1H-pyrrolo[2,3-b]pyridin-3-yl)cyclopent-1-enecarboxamide]"
5,≤ 1000,"NC(=O)/C=C/c1c[nH]c2ncc(-c3ccc(N4CCCCC4)nc3)cc12 [Example 363, (E)-3-(5-(6-(piperidin-1-yl)pyridin-3-yl)-1H-pyrrolo [2,3-b]pyridin-3-yl)acrylamide]"
6,≤ 1000,"NC(=O)/C=C/c1c[nH]c2ncc(-c3ccc4c(c3)CCC4=O)nc12 [Example 343, (E)-3-(2-(1-oxo-2,3-dihydro-1H-inden-5-yl)-5H-pyrrolo[2,3-b]pyrazin-7-yl)acrylamide]"
7,≤ 1000,"NC(=O)/C=C/c1c[nH]c2ncc(C=O)cc12 [Example 356, (E)-3-(5-formyl-1H-pyrrolo[2,3-b]pyridin-3-yl)acrylamide]"
8,≤ 1000,"NC(=O)/C=C/c1c[nH]c2ncc(-c3ccc(Oc4ccccc4)cc3)cc12 [Example 342, (E)-3-(5-(4-phenoxyphenyl)-1H-pyrrolo[2,3-b]pyridin-3-yl)acrylamide]"
9,≤ 1000,"CC(C)OC(=O)N1CCN(c2cnc3[nH]cc(/C=C/C(N)=O)c3c2)CC1 [Example 301, (E)-isopropyl 4-(3-(3-amino-3-oxoprop-1-en-1-yl)-1H-pyrrolo[2,3-b]pyridin-5-yl)piperazine-1-carboxylate]"
10,≤ 1000,"NC(=O)/C=C/c1c[nH]c2ncc(-c3ccc(=O)n(CC4CC4)c3)cc12 [Example 328, (E)-3-(5-(1-(cyclopropyl-methyl)-6-oxo-1,6-dihydropyridin-3-yl)-1H-pyrrolo[2,3-b]pyridin-3-yl)acrylamide]"
11,> 1000,"N#CC(C#N)=Cc1c[nH]c2ncc(-c3ccccc3)cc12 [Example 242, 2-((5-phenyl-1H-pyrrolo[2,3-b]pyridin-3-yl)methylene) malononitrile]"
12,≤ 1000,"NC(=O)/C=C/c1c[nH]c2ncc(-c3ccc(Oc4ccc(F)cc4)cc3)cc12 [Example 344, (E)-3-(5-(4-(4-fluorophenoxy)phenyl)-1H-pyrrolo[2,3-b]pyridin-3-yl)acrylamide]"
13,≤ 1000,"NC(=O)/C=C/c1c[nH]c2ncc(-c3ccc(C(O)c4nccs4)cc3)cc12 (centres unmarked) [Example 322, (E)-3-(5-(4-(hydroxy(thiazol-2-yl)methyl)phenyl)-1H-pyrrolo[2,3-b]pyridin-3-yl)acrylamide]"
14,≤ 1000,"CC(=O)c1cc(-c2cnc3[nH]cc(/C=C/C(N)=O)c3c2)ccn1 [Example 315, (E)-3-(5-(2-acetylpyridin-4-yl)-1H-pyrrolo[2,3-b]pyridin-3-yl)acrylamide]"
15,≤ 1000,"NC(=O)/C=C/c1c[nH]c2ncc(-c3ccc(C(=O)c4nccs4)cc3)cc12 [Example 324, (E)-3-(5-(4-(thiazole-2-carbonyl)phenyl)-1H-pyrrolo[2,3-b]pyridin-3-yl)acrylamide]"
16,≤ 1000,"NC(=O)/C=C/c1c[nH]c2ncc(-c3cc(Cl)cc(C(F)(F)F)c3)cc12 [Example 347, (E)-3-(5-(3-chloro-5-(trifluoromethyl)phenyl)-1H-pyrrolo[2,3-b]pyridin-3-yl)acrylamide]"
17,≤ 1000,"N#C/C(=C\c1c[nH]c2ncc(-c3ccc(OCC4CC4)nc3)cc12)C(N)=O [Example 364, (E)-2-cyano-3-(5-(6-(cyclopropyl-methoxy)pyridin-3-yl)-1H-pyrrolo[2,3-b]pyridin-3-yl)acrylamide]"
18,≤ 1000,"CC(C)(O)c1cncc(-c2cnc3[nH]cc(/C=C/C(N)=O)c3c2)c1 [Example 311, (E)-3-(5-(5-(2-hydroxypropan-2-yl)pyridin-3-yl)-1H-pyrrolo[2,3-b]pyridin-3-yl)acrylamide]"

row,IC50 [nM],Compound
1,≤ 1000,"NC(=O)/C=C/c1c[nH]c2ncc(-c3cccc(Oc4ccccc4)c3)cc12 [Example 341, (E)-3-(5-(3-phenoxyphenyl)-1H-pyrrolo[2,3-b]pyridin-3-yl)acrylamide]"
2,≤ 1000,CC(C)c1ccccc1-c1cnc2[nH]cc(/C=C/C(N)=O)c2n1 [Example 359]
3,≤ 1000,"CC(=O)c1ccc(-c2cc3c(/C=C/C(N)=O)c[nH]c3nc2C)cc1 [Example 331, (E)-3-(5-(4-acetylphenyl)-6-methyl-1H-pyrrolo[2,3-b]pyridin-3-yl)acrylamide]"
4,≤ 1000,"CC(=O)c1cccc(-c2cnc3[nH]cc(/C=C/C(N)=O)c3n2)c1 [Example 306, (E)-3-(2-(3-acetylphenyl)-5H-pyrrolo[2,3-b]pyrazin-7-yl)acrylamide]"
5,≤ 1000,"NC(=O)/C=C/c1c[nH]c2ncc(-c3ccc(N4CCCCC4)nc3)nc12 [Example 320, (E)-3-(2-(6-(piperidin-1-yl)pyridin-3-yl)-5H-pyrrolo[2,3-b]pyrazin-7-yl)acrylamide]"
6,≤ 1000,"NC(=O)/C=C/c1c[nH]c2ncc(-c3ccc(Oc4ccccc4)nc3)cc12 [Example 345, (E)-3-(5-(6-phenoxypyridin-3-yl)-1H-pyrrolo[2,3-b]pyridin-3-yl)acrylamide]"
7,> 1000,"C=C(C)C(=O)Nc1c[nH]c2ncc(-c3ccccc3)cc12 [Example 233, N-(5-phenyl-1H-pyrrolo[2,3-b]pyridin-3-yl) methacrylamide]"
8,≤ 1000,"CN(C)C(=O)c1cnc2[nH]cc(/C=C/C(N)=O)c2c1 [Example 355, (E)-3-(3-amino-3-oxoprop-1-en-1-yl)-N,N-dimethyl-1H-pyrrolo[2,3-b]pyridine-5-carboxamide]"
9,≤ 1000,"CC(C)(O)c1cccc(-c2cnc3[nH]cc(/C=C/C(N)=O)c3n2)c1 [Example 308, (E)-3-(2-(3-(2-hydroxypropan-2-yl)phenyl)-5H-pyrrolo[2,3-b]pyrazin-7-yl)acrylamide]"
10,≤ 1000,"CC(=O)c1cncc(-c2cnc3[nH]cc(/C=C/C(N)=O)c3c2)c1 [Example 304, (E)-3-(5-(5-acetylpyridin-3-yl)-1H-pyrrolo[2,3-b]pyridin-3-yl)acrylamide]"
11,≤ 1000,"CCC(C)(O)c1ccc(-c2cnc3[nH]cc(/C=C/C(N)=O)c3c2)cc1 (centres unmarked) [Example 310, (E)-3-(5-(4-(2-hydroxybutan-2-yl)phenyl)-1H-pyrrolo[2,3-b]pyridin-3-yl)acrylamide]"
12,≤ 1000,"CC#CC(=O)Nc1c[nH]c2ncc(-c3ccccc3)cc12 [Example 237, N-(5-phenyl-1H-pyrrolo[2,3-b]pyridin-3-yl)but-2-ynamide]"
13,≤ 1000,"NC(=O)/C=C/c1c[nH]c2ncc(C(=O)c3ccc(F)cc3)cc12 [Example 353, (E)-3-(5-(4-fluorobenzoyl)-1H-pyrrolo[2,3-b]pyridin-3-yl)acrylamide]"
14,≤ 1000,"CCC(=O)c1ccc(-c2cnc3[nH]cc(/C=C/C(N)=O)c3n2)c(C)c1 [Example 314, (E)-3-(2-(2-methyl-4-propionylphenyl)-5H-pyrrolo[2,3-b]pyrazin-7-yl)acrylamide]"
15,≤ 1000,"CC(C)(O)c1ccc(-c2cnc3[nH]cc(/C=C/C(N)=O)c3n2)cc1 [Example 309, (E)-3-(2-(4-(2-hydroxypropan-2-yl)phenyl)-5H-pyrrolo[2,3-b]pyrazin-7-yl)acrylamide]"
16,≤ 1000,"NC(=O)/C=C/c1c[nH]c2ncc(N3CCN(C(=O)c4ccc(F)cc4F)CC3)cc12 [Example 332, (E)-3-(5-(4-(2,4-difluorobenzoyl)piperazin-1-yl)-1H-pyrrolo[2,3-b]pyridin-3-yl)acrylamide]"
17,≤ 1000,"NC(=O)/C=C/c1c[nH]c2ncc(N3CCN(C(=O)Oc4ccccc4)CC3)cc12 [Example 302, (E)-phenyl 4-(3-(3-amino-3-oxoprop-1-en-1-yl)-1H-pyrrolo[2,3-b]pyridin-5-yl)piperazine-1-carboxylate]"
